US5294611A, “Angiotensin II receptor blocking 2,3,6 substituted quinazolinones” (American Cyanamid Company, priority 1993, dated 1994)
Where two headings read alike, the source gives them in different places.

System: Angiotensin II (AII) vasopressor response
Experiment: AII Challenge: antagonism of angiotensin II vasopressor response in conscious spontaneously hypertensive rats
Format: in vivo, rat (male okamoto-Aoki SHR)
Settings: for inhibition in vivo at 3 mg/kg / inhibition in vivo at 5 mg/kg: Rattus norvegicus, read-out: Inhibition; for inhibition in vivo at 3 mg/kg: iv; for inhibition in vivo at 3 mg/kg / inhibition in vivo at 5 mg/kg / Average Change: SHR n=2; for inhibition in vivo at 5 mg/kg: po; for Change: single SHR
Summary of the method: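 Conscious male SHR (16–20 weeks, ~330 g) cannulated under local procaine, blood pressure recorded via transducer. Angiotensin II (human) 0.05 and 0.1 ug/kg i.v. given before and after test compound dosed i.v., i.p. or orally; response measured as rise in systolic pressure (mmHg).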

[1] = 3 mg/kg I.V., AII 0.05 mcg/kg IV, 240 min post dose
[2] = 3 mg/kg I.V., AII 0.1 mcg/kg IV, 300 min post dose
[3] = 5 mg/kg P.O., AII 0.1 mcg/kg IV, 300 min post dose

CCCCc1nc2ccc([C@H]3[C@@H]4C(=O)OC[C@@H]4ON3C)cc2c(=O)n1Cc1ccc(-c2ccccc2-c2nnn[nH]2)cc1 (relative stereo) [Example 53] gave an inhibition in vivo at 3 mg/kg (0.5 h, 3 mg/kg I.V., AII 0.05 mcg/kg IV, 30 min post dose) of 74%, an inhibition in vivo at 3 mg/kg (0.5 h, 3 mg/kg I.V., AII 0.1 mcg/kg IV, 30 min post dose) of 81% and an inhibition in vivo at 3 mg/kg (1 h, 3 mg/kg I.V., AII 0.05 mcg/kg IV, 60 min post dose) of 99%. The inhibition in vivo at 3 mg/kg (1 h, 3 mg/kg I.V., AII 0.1 mcg/kg IV, 60 min post dose) was 95%, the inhibition in vivo at 3 mg/kg (2 h, 3 mg/kg I.V., AII 0.05 mcg/kg IV, 120 min post dose) was 42% and the inhibition in vivo at 3 mg/kg (2 h, 3 mg/kg I.V., AII 0.1 mcg/kg IV, 120 min post dose) was 64%. It also gave an inhibition in vivo at 3 mg/kg (3 h, 3 mg/kg I.V., AII 0.05 mcg/kg IV, 180 min post dose) of 77%, an inhibition in vivo at 3 mg/kg (3 h, 3 mg/kg I.V., AII 0.1 mcg/kg IV, 180 min post dose) of 64% and an inhibition in vivo at 3 mg/kg (4 h, 3 mg/kg I.V., AII 0.05 mcg/kg IV, 240 min post dose) of 36%. It also gave an inhibition in vivo at 3 mg/kg (4 h, 3 mg/kg I.V., AII 0.1 mcg/kg IV, 240 min post dose) of 44%, an inhibition in vivo at 3 mg/kg (5 h, 3 mg/kg I.V., AII 0.05 mcg/kg IV, 300 min post dose) of 49% and an inhibition in vivo at 3 mg/kg (5 h, 3 mg/kg I.V., AII 0.1 mcg/kg IV, 300 min post dose) of 39%. It also gave an inhibition in vivo at 3 mg/kg ([…], 3 mg/kg I.V., AII 0.05 mcg/kg IV, 90 min post dose) of 68%, an inhibition in vivo at 3 mg/kg ([…], 3 mg/kg I.V., AII 0.1 mcg/kg IV, 90 min post dose) of 66% and an inhibition in vivo at 5 mg/kg (0.5 h, 5 mg/kg P.O., AII 0.05 mcg/kg IV, 30 min post dose) of 75%. For the same molecule, the inhibition in vivo at 5 mg/kg (0.5 h, 5 mg/kg P.O., AII 0.1 mcg/kg IV, 30 min post dose) was 59%, the inhibition in vivo at 5 mg/kg (1 h, 5 mg/kg P.O., AII 0.05 mcg/kg IV, 60 min post dose) was 81% and the inhibition in vivo at 5 mg/kg (1 h, 5 mg/kg P.O., AII 0.1 mcg/kg IV, 60 min post dose) was 53%. The inhibition in vivo at 5 mg/kg (2 h, 5 mg/kg P.O., AII 0.05 mcg/kg IV, 120 min post dose) was 98%, the inhibition in vivo at 5 mg/kg (2 h, 5 mg/kg P.O., AII 0.1 mcg/kg IV, 120 min post dose) was 74% and the inhibition in vivo at 5 mg/kg (3 h, 5 mg/kg P.O., AII 0.05 mcg/kg IV, 180 min post dose) was 96%. The inhibition in vivo at 5 mg/kg (3 h, 5 mg/kg P.O., AII 0.1 mcg/kg IV, 180 min post dose) was 79%, the inhibition in vivo at 5 mg/kg (4 h, 5 mg/kg P.O., AII 0.05 mcg/kg IV, 240 min post dose) was 69% and the inhibition in vivo at 5 mg/kg (4 h, 5 mg/kg P.O., AII 0.1 mcg/kg IV, 240 min post dose) was 71%. The inhibition in vivo at 5 mg/kg (5 h, 5 mg/kg P.O., AII 0.05 mcg/kg IV, 300 min post dose) was 84%, the inhibition in vivo at 5 mg/kg (5 h, 5 mg/kg P.O., AII 0.1 mcg/kg IV, 300 min post dose) was 53% and the inhibition in vivo at 5 mg/kg ([…], 5 mg/kg P.O., AII 0.05 mcg/kg IV, 90 min post dose) was 88%. For the same molecule, the inhibition in vivo at 5 mg/kg ([…], 5 mg/kg P.O., AII 0.1 mcg/kg IV, 90 min post dose) was 76%, the “Average Change” value (3 mg/kg I.V., AII 0.05 mcg/kg IV, 30 min post dose) was 10 mmHg and the “Average Change” value (3 mg/kg I.V., AII 0.05 mcg/kg IV, 60 min post dose) was 0.5 mmHg. For the same molecule, the “Average Change” value (3 mg/kg I.V., AII 0.05 mcg/kg IV, 90 min post dose) was 12.5 mmHg, the “Average Change” value (3 mg/kg I.V., AII 0.05 mcg/kg IV, 120 min post dose) was 22.5 mmHg and the “Average Change” value (3 mg/kg I.V., AII 0.05 mcg/kg IV, 180 min post dose) was 9 mmHg. For the same molecule, the “Average Change” value [1] was 25 mmHg, the “Average Change” value (3 mg/kg I.V., AII 0.1 mcg/kg IV, 30 min post dose) was 9.5 mmHg and the “Average Change” value (3 mg/kg I.V., AII 0.1 mcg/kg IV, 60 min post dose) was 2.5 mmHg. The “Average Change” value (3 mg/kg I.V., AII 0.1 mcg/kg IV, 90 min post dose) was 16.5 mmHg, the “Average Change” value (3 mg/kg I.V., AII 0.1 mcg/kg IV, 120 min post dose) was 17.5 mmHg and the “Average Change” value (3 mg/kg I.V., AII 0.1 mcg/kg IV, 180 min post dose) was 17.5 mmHg. The “Average Change” value (3 mg/kg I.V., AII 0.1 mcg/kg IV, 240 min post dose) was 27.5 mmHg, the “Average Change” value [2] was 30 mmHg and the “Average Change” value (5 mg/kg P.O., AII 0.05 mcg/kg IV, 30 min post dose) was 10 mmHg. The “Average Change” value (5 mg/kg P.O., AII 0.05 mcg/kg IV, 60 min post dose) was 7.5 mmHg, the “Average Change” value (5 mg/kg P.O., AII 0.05 mcg/kg IV, 90 min post dose) was 5 mmHg and the “Average Change” value (5 mg/kg P.O., AII 0.05 mcg/kg IV, 120 min post dose) was 1 mmHg. For the same molecule, the “Average Change” value (5 mg/kg P.O., AII 0.05 mcg/kg IV, 180 min post dose) was 1.5 mmHg, the “Average Change” value (5 mg/kg P.O., AII 0.05 mcg/kg IV, 240 min post dose) was 12.5 mmHg and the “Average Change” value (5 mg/kg P.O., AII 0.05 mcg/kg IV, 300 min post dose) was 6.5 mmHg. The “Average Change” value (5 mg/kg P.O., AII 0.1 mcg/kg IV, 30 min post dose) was 17.5 mmHg, the “Average Change” value (5 mg/kg P.O., AII 0.1 mcg/kg IV, 60 min post dose) was 20 mmHg and the “Average Change” value (5 mg/kg P.O., AII 0.1 mcg/kg IV, 90 min post dose) was 10 mmHg. The “Average Change” value (5 mg/kg P.O., AII 0.1 mcg/kg IV, 120 min post dose) was 11 mmHg, the “Average Change” value (5 mg/kg P.O., AII 0.1 mcg/kg IV, 180 min post dose) was 9 mmHg and the “Average Change” value (5 mg/kg P.O., AII 0.1 mcg/kg IV, 240 min post dose) was 12.5 mmHg. The “Average Change” value [3] was 20 mmHg, the Change [1] was 25 mmHg and the Change (3 mg/kg I.V., AII 0.05 mcg/kg IV, 300 min post dose) was 20 mmHg. The Change [2] was 30 mmHg and the Change [3] was 20 mmHg.
